This is an account of results in patent US20020123503A1, “Cabergoline pharmaceutical compositions and methods of use thereof” (priority 2000, published 2002).

The data set is described as follows: Chemical stability of cabergoline and its tablets. It counts as physicochemical. Conditions: normal wet granulation techniques.

Regarding `C=CCN1C[C@H](C(=O)N(CCCN(C)C)C(=O)NCC)C[C@@H]2c3cccc4[nH]cc(c34)C[C@H]21` [cabergoline, 1((6-allylergolin-8.beta,-yl)-carbony.)-1-(3-(dimethylamino)propyl)-3ethylurea], the “degradation of the active ingredient” value was “did degrade”.
